In article PMC12521730, “Quantitative dual-isotope preclinical SPECT/CT imaging and biodistribution of the mercury-197m/g theranostic pair with [^197m/gHg]HgCl2 and a [^197m/gHg]Hg-tetrathiol complex as a platform for radiopharmaceutical development” (EJNMMI Radiopharmacy and Chemistry, 2025):

Test: Ex vivo biodistribution (gamma counter)
Format: in vivo, healthy male C57BL/6 mice
Conditions: Hg-197m, 2 h post administration
Procedure: For animal injection, the tracer was prepared at high molar activity. Radiolabeling of H4Tetrathiol (10^–2 M in DMSO; 40 μL for imaging, 20 μL for bioD) (or DMSO, for [^197m/gHg]HgCl2 mice) with [^197m/gHg]HgCl2 (imaging: 26.7 MBq total m + g, 62 μL; bioD: 13.04 MBq total m + g, 31 μL) was performed in a mixture of ammonium acetate buffer (1 M; pH 7; 198 μL for imaging or 149 μL for bioD) and 6 M NaOH (72 μL or 38 μL required to achieve a pH of 7.5 after addition of activity, for imaging or BioD labeling, respectively). The reaction was allowed to stand for 1 h at 37 °C and quantitative (> 99%) non-isolated percentage radiochemical yield (%RCY) was confirmed via the iTLC methods mentioned above. Further, 100 µL of the reaction was diluted with 50 µL of PBS Tween-20 (0.01 M sodium phosphate, 0.15 M NaCl, 0.05% Tween-20) for imaging mice, or 50 µL of the reaction was diluted with 100 µL of PBS Tween-20 for BioD mice. The tracers were prepared immediately before injection to avoid radiolysis and minimize the tracer loss to any surfaces due to its lipophilicity. The injected doses of each isomer, ^197mHg and ^197gHg, were quantified by measuring an aliquot of known volume of each tracer preparation via HPGe gamma spectroscopy and decay corrected for time of injection using the Eqs. (1) and (2).
The study was conducted in compliance with the guidelines set by the Canadian Council on Animal Care (CCAC) and approved by the Animal Care Committee (ACC) at the University of British Columbia (A20-0132). A total of eight healthy male C57BL/6 mice weighing approximately 30 g for group 1 and 25 g for group 2 were used in the study. The mice were divided into two experimental groups: group 1 (n = 4) received free [^197m/gHg]HgCl2, while group 2 (n = 4) received [^197m/gHg]Hg-Tetrathiol. Within each group, one mouse was allocated for imaging, while the rest were designated for ex vivo biodistribution analysis. For SPECT imaging, the designated mice were anesthetized using isoflurane via a precision vaporizer. […] Once anesthetized, each imaging mouse received an intravenous (IV) injection via the lateral tail vein of 150 μL of [^197m/gHg]HgCl2 (0.492 MBq ^197mHg + 3.171 MBq ^197gHg) or [^197m/gHg]Hg-Tetrathiol (0.899 MBq ^197mHg + 4.230 MBq ^197gHg) in PBS Tween-20 (0.01 M Na Phosphate, 0.15 M NaCl, 0.05% Tween-20).
Mice received an IV injection of [^197m/gHg]HgCl2 (0.275 MBq ^197mHg + 1.758 MBq ^197gHg, 150 μL) or [^197m/gHg]Hg-Tetrathiol (0.384 MBq ^197mHg + 1.733 MBq ^197gHg, 150 μL) (n = 3 per group) via the lateral tail vein using a Tailveiner restrainer. After the injection, the mice were returned to their experimental cages and allowed unrestricted movement. Biodistribution studies were conducted 2 h after administration. Mice were humanely euthanized with an overdose of isoflurane followed by cardiac puncture to collect blood pool activity. The organs of interest were fully extracted, cleaned of blood without rinsing, weighed, and analysed for radioactivity using a calibrated gamma counter with the 55–93 keV energy window for ^197gHg and the 110–160 keV energy window for ^197mHg (Packard Cobra II, Perkin Elmer, Waltham, MA, USA). The stomach and intestines were carefully cleaned prior to analysis to remove residual contents. For tissues and fluids that could not be fully removed (muscle, blood and bone) activity values were extrapolated based on standardised organ weights for age- and sex-matched mice tables to ensure accurate normalization (Davies and Morris [1993]; Foster et al. [2014]). The stomach and whole intestines were cleaned before analysis. The radioactivity measurements were decay corrected for time of injection using the Eqs. (1) and (2). The results are reported as the percentage of the injected activity per gram of tissue (%IA/g) and percentage of the injected activity per tissue (%IA/organ).

Compound: O=C(CC[S-])OCC(COC(=O)CC[S-])(COC(=O)CC[S-])COC(=O)CC[S-].[Hg+2] [[^197m/gHg]Hg-Tetrathiol]
- Animal 2 (%IA/g) m: blood: 0.13 %IA/g
- Animal 2 (%IA/g) m: bone: 1.62 %IA/g
- Animal 2 (%IA/g) m: brain: 0.02 %IA/g
- Animal 2 (%IA/g) m: feces: 0.05 %IA/g
- Animal 2 (%IA/g) m: heart: 0.59 %IA/g
- Animal 2 (%IA/g) m: kidneys: 2.35 %IA/g
- Animal 2 (%IA/g) m: large intestine: 0.05 %IA/g
- Animal 2 (%IA/g) m: lungs: 7.04 %IA/g
- Animal 2 (%IA/g) m: muscle: 0.02 %IA/g
- Animal 2 (%IA/g) m: pancreas: 0.04 %IA/g
- Animal 2 (%IA/g) m: small intestine: 0.08 %IA/g
- Animal 2 (%IA/g) m: spleen: 79.95 %IA/g
- Animal 2 (%IA/g) m: stomach: 0.37 %IA/g
- Animal 2 (%IA/g) m: tail: 1.39 %IA/g
- Animal 2 (%IA/g) m: urine: 0.03 %IA/g
- Animal 3 (%IA/g) m: bladder: 0.04 %IA/g
- Animal 3 (%IA/g) m: blood: 0.15 %IA/g
- Animal 3 (%IA/g) m: bone: 1.38 %IA/g
- Animal 3 (%IA/g) m: brain: 0.04 %IA/g
- Animal 3 (%IA/g) m: feces: 0.01 %IA/g
- Animal 3 (%IA/g) m: heart: 0.70 %IA/g
- Animal 3 (%IA/g) m: kidneys: 3.71 %IA/g
- Animal 3 (%IA/g) m: large intestine: 0.12 %IA/g
- Animal 3 (%IA/g) m: lungs: 9.69 %IA/g
- Animal 3 (%IA/g) m: muscle: 0.02 %IA/g
- Animal 3 (%IA/g) m: pancreas: 0.09 %IA/g
- Animal 3 (%IA/g) m: small intestine: 0.10 %IA/g
- Animal 3 (%IA/g) m: spleen: 108.27 %IA/g
- Animal 3 (%IA/g) m: stomach: 1.02 %IA/g
- Animal 3 (%IA/g) m: tail: 0.66 %IA/g
- Animal 3 (%IA/g) m: urine: 0.03 %IA/g
- Animal 4 (%IA/g) m: bladder: 0.07 %IA/g
- Animal 4 (%IA/g) m: blood: 0.12 %IA/g
- Animal 4 (%IA/g) m: bone: 1.62 %IA/g
- Animal 4 (%IA/g) m: brain: 0.02 %IA/g
- Animal 4 (%IA/g) m: feces: 0.01 %IA/g
- Animal 4 (%IA/g) m: heart: 0.64 %IA/g
- Animal 4 (%IA/g) m: kidneys: 3.03 %IA/g
- Animal 4 (%IA/g) m: large intestine: 0.05 %IA/g
- Animal 4 (%IA/g) m: lungs: 7.69 %IA/g
- Animal 4 (%IA/g) m: muscle: 0.02 %IA/g
- Animal 4 (%IA/g) m: pancreas: 0.05 %IA/g
- Animal 4 (%IA/g) m: small intestine: 0.15 %IA/g
- Animal 4 (%IA/g) m: spleen: 101.18 %IA/g
- Animal 4 (%IA/g) m: stomach: 0.12 %IA/g
- Animal 4 (%IA/g) m: tail: 7.32 %IA/g
- Animal 4 (%IA/g) m: urine: 0.04 %IA/g
- Average Hg-197m (%IA/g): bladder: 0.044 %IA/g
- Average Hg-197m (%IA/g): blood: 0.13 %IA/g
- Average Hg-197m (%IA/g): bone: 1.68 %IA/g
- Average Hg-197m (%IA/g): brain: 0.028 %IA/g
- Average Hg-197m (%IA/g): feces: 0.026 %IA/g
- Average Hg-197m (%IA/g): heart: 0.60 %IA/g
- Average Hg-197m (%IA/g): kidneys: 3.65 %IA/g
- Average Hg-197m (%IA/g): large intestine: 0.091 %IA/g
- Average Hg-197m (%IA/g): lungs: 8.38 %IA/g
- Average Hg-197m (%IA/g): muscle: 0.017 %IA/g
- Average Hg-197m (%IA/g): pancreas: 0.056 %IA/g
- Average Hg-197m (%IA/g): small intestine: 0.12 %IA/g
- Average Hg-197m (%IA/g): spleen: 91.06 %IA/g
- Average Hg-197m (%IA/g): stomach: 0.42 %IA/g
- Average Hg-197m (%IA/g): tail: 2.77 %IA/g
- Average Hg-197m (%IA/g): urine: 0.033 %IA/g
